Consider four molecules from PMC10004634 (PLOS ONE, 2023).

Read-outs that look alike come from different tables or passages of the source.

Some targets named below: PRKCH (Homo sapiens, UniProt P24723); EPHA4 (Homo sapiens, UniProt P54764); EGFR(L858R) (Homo sapiens, UniProt P00533, L858R); CDKL3 (Homo sapiens, UniProt Q8IVW4); PIK3CA(Q546K) (Homo sapiens, UniProt P42336, Q546K); ROS1 (Homo sapiens, UniProt P08922); PAK6 (Homo sapiens, UniProt Q9NQU5).
Common to all, as to assay: biochemical
What all share (design): KINOMEscan scanMAX competition binding, DNA-tagged kinases, qPCR read-out, percent control at 300 nM
Background: Real-time PCR tracks product formation cycle by cycle.

Another test has as its target T1, DDR2 (Homo sapiens, UniProt Q16832).
T1 sequence (Q16832 1-855): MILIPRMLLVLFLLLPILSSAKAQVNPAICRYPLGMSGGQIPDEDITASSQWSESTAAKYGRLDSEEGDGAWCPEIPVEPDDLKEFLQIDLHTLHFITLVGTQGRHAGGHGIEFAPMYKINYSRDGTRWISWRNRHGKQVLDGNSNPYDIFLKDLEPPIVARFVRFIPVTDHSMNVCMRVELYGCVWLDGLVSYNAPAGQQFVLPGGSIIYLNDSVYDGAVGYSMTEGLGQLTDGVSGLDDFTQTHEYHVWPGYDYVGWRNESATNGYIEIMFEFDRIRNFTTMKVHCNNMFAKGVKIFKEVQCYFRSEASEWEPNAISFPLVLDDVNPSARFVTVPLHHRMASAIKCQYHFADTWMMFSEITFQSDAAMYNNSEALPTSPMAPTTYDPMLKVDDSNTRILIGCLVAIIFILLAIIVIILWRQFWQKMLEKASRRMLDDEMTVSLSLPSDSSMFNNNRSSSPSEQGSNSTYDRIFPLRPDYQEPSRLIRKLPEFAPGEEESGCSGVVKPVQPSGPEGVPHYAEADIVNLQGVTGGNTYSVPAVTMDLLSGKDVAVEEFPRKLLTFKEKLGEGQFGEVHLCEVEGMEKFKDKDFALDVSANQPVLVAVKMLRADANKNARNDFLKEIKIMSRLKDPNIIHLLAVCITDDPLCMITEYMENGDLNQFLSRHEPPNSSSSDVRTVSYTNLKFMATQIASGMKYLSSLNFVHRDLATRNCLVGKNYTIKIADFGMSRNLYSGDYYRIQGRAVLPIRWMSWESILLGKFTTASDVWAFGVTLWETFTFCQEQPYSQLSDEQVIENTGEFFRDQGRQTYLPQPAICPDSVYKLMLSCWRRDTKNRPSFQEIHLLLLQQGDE

The next test deals with T2, MEK1 (Homo sapiens, UniProt Q02750).
T2 construct: gene MAP2K1

A further test has as its target T3, AURKA (Homo sapiens, UniProt O14965).
T3 sequence (O14965 1-403): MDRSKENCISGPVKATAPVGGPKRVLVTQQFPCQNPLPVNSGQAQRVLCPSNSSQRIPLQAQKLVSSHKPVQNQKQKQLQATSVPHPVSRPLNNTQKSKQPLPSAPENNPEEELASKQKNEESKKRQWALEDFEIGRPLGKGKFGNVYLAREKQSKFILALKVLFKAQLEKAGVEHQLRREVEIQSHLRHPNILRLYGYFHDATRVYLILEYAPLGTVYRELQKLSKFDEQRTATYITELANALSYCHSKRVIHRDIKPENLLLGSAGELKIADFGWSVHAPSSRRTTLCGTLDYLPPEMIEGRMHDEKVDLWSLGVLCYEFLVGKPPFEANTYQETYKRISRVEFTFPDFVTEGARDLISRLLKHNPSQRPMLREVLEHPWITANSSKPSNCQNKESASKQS

The target in the next test is T4, PHKG2 (Homo sapiens, UniProt P15735).
T4 sequence (P15735 1-406): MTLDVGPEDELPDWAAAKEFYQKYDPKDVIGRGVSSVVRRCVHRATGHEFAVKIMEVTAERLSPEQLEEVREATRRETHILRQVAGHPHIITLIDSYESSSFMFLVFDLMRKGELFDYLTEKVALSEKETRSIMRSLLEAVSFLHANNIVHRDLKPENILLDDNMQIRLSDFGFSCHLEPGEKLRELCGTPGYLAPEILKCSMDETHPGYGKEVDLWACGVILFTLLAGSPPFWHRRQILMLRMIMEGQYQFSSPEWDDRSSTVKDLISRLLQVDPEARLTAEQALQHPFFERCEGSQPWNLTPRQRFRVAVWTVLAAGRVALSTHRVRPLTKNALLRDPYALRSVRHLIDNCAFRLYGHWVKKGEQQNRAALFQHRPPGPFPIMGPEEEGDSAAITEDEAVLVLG

[1] abbreviates: read-out: Percent control / Acalabrutinib.
[2] abbreviates: read-out: Percent control / Ibrutinib.
The mark [3] stands for this setting: read-out: Percent control / Tirabrutinib.
The mark [4] stands for this setting: read-out: Percent control / Zanubrutinib.

EPHA4, sequence (P54764 whole entry): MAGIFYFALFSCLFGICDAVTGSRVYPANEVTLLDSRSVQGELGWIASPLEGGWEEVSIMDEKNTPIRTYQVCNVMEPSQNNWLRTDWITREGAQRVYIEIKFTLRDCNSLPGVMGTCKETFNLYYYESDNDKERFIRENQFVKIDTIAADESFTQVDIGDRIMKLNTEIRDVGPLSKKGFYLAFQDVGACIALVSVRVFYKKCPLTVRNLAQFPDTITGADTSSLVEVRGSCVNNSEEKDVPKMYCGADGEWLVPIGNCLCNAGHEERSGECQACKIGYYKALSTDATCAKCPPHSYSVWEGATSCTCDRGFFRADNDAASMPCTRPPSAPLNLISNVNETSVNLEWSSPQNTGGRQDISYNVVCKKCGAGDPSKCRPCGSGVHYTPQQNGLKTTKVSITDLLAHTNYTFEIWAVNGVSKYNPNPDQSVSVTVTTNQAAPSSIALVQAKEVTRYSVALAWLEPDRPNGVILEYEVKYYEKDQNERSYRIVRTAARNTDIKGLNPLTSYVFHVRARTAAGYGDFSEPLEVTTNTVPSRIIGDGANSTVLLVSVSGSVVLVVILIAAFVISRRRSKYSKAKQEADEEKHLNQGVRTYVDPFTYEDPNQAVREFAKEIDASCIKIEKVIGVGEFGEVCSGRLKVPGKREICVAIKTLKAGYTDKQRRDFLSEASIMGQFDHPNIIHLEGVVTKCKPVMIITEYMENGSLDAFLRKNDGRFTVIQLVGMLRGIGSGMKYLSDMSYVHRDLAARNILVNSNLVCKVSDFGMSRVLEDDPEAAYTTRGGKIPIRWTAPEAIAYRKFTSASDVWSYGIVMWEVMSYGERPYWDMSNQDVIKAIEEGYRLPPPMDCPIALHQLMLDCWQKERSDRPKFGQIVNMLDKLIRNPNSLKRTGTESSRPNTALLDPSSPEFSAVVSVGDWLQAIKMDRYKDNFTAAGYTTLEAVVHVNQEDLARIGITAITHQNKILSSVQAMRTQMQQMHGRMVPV
ROS1, sequence (P08922 whole entry): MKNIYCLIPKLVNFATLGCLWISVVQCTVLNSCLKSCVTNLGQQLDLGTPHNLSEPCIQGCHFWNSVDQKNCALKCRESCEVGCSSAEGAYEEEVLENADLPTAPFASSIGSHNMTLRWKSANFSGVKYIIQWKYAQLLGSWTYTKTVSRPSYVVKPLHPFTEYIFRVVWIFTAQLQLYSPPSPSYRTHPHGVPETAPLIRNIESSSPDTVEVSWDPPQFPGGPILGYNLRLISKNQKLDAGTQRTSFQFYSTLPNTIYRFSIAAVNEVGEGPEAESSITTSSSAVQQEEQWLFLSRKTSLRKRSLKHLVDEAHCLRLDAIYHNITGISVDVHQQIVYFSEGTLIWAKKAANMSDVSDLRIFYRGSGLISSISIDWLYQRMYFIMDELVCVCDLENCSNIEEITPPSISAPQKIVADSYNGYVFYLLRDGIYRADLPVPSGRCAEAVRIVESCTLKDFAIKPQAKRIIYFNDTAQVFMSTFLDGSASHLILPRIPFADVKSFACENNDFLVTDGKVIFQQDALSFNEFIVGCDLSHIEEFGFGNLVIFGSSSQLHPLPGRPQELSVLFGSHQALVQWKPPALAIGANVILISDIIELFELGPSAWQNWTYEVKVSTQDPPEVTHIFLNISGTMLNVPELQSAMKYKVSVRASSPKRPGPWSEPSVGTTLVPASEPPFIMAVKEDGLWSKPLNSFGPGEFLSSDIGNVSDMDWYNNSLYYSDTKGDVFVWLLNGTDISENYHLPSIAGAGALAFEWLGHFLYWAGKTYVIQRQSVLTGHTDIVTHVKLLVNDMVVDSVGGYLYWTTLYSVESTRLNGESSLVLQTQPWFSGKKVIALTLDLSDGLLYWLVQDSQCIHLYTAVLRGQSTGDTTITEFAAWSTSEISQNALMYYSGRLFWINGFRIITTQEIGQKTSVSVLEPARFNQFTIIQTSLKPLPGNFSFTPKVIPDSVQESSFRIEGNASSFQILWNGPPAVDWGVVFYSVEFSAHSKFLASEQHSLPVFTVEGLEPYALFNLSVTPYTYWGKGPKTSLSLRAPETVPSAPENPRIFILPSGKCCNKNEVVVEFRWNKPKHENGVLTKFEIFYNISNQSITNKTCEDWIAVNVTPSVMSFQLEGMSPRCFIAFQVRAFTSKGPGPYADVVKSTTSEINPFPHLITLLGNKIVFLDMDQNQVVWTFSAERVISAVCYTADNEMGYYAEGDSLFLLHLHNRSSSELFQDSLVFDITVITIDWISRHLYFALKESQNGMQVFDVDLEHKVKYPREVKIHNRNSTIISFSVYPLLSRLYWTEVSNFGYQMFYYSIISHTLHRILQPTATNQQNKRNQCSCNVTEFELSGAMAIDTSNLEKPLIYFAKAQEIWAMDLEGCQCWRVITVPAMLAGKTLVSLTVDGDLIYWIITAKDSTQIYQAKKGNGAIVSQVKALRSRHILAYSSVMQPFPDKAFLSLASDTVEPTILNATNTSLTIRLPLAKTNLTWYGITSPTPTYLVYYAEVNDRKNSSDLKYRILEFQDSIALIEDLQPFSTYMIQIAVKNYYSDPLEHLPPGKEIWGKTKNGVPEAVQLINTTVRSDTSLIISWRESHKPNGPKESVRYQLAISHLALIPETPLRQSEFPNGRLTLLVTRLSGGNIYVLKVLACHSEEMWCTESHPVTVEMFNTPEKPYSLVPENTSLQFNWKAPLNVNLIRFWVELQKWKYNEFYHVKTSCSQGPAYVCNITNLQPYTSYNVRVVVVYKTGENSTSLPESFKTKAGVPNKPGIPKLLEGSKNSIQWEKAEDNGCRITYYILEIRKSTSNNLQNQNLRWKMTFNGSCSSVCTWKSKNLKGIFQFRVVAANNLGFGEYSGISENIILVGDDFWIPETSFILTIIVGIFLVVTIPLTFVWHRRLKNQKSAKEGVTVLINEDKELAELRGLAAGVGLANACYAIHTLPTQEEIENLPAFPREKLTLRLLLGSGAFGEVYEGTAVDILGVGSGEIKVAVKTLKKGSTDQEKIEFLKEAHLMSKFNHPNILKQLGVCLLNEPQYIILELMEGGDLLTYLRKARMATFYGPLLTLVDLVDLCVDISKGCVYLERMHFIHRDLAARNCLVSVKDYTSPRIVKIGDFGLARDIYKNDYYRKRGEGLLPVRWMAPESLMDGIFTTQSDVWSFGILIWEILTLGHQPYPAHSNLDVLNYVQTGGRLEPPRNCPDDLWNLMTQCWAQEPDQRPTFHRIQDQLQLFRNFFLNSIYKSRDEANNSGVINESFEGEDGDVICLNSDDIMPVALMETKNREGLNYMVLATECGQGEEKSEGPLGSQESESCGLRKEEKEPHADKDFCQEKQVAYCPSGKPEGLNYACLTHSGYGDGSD
EGFR(L858R), sequence (P00533 whole entry L858R): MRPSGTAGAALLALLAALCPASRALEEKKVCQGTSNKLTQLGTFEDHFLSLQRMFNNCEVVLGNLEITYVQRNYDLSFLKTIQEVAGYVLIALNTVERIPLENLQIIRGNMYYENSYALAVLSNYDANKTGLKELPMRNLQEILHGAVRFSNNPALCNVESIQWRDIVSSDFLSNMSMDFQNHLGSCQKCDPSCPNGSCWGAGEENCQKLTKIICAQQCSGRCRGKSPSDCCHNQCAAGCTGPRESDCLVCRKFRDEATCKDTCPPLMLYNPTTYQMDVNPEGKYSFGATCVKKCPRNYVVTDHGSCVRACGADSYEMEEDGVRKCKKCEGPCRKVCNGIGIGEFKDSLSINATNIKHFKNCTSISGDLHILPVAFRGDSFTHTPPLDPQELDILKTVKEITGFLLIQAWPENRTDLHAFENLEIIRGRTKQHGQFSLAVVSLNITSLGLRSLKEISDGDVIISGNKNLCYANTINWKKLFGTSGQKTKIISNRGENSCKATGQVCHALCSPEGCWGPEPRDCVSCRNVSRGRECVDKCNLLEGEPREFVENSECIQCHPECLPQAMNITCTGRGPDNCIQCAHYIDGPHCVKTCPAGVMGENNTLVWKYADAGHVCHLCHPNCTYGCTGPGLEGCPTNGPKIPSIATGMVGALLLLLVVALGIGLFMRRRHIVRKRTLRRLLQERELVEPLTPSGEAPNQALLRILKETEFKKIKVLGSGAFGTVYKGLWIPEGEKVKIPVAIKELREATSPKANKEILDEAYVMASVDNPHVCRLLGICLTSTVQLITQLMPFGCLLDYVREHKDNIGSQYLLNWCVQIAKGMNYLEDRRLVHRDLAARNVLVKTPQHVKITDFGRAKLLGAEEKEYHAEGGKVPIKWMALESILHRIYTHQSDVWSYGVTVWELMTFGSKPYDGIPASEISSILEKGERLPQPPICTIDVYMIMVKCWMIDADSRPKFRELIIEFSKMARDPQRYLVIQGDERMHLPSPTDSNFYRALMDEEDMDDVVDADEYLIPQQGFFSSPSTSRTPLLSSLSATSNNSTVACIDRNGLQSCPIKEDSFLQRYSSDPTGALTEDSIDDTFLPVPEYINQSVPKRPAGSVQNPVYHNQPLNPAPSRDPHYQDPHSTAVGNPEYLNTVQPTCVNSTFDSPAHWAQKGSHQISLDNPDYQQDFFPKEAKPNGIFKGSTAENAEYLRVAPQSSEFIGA
CDKL3, sequence (Q8IVW4 whole entry): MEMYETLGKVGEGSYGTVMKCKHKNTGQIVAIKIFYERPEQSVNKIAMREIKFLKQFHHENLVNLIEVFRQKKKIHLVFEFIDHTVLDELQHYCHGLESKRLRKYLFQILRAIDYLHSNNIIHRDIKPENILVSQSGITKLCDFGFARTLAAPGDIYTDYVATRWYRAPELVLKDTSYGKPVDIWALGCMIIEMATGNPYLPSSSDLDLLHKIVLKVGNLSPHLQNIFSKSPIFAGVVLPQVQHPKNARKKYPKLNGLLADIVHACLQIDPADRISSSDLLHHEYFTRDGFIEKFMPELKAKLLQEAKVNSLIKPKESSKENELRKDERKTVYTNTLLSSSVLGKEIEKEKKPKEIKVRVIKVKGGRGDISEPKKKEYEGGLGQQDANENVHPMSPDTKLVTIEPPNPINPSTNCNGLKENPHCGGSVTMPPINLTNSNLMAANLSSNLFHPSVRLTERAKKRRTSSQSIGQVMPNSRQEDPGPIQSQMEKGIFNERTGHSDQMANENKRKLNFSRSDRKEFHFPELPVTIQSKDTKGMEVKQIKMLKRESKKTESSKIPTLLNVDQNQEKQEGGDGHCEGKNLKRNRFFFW

For the molecule `CC#CC(=O)N1CCC[C@H]1c1nc(-c2ccc(C(=O)Nc3ccccn3)cc2)c2c(N)nccn12` [Acalabrutinib], the remaining binding at 0.3 µM on PRKCH (setting [1]) amounted to 94%; at EPHA4 (setting [1]), 96%; at EGFR(L858R) (setting [1]), 93%; at CDKL3 (setting [1]), 78%; at PIK3CA(Q546K) (setting [1]), 88%; at DDR2 (setting [1]) it was 95%. Also, the remaining binding at 0.3 µM was found to be 96% on MEK1 (setting [1]), 86% at ROS1 (setting [1]), 96% at AURKA (setting [1]) and 88% on PAK6 (setting [1]).

On to `C=CC(=O)N1CCC[C@@H](n2nc(-c3ccc(Oc4ccccc4)cc3)c3c(N)ncnc32)C1` [Ibrutinib], for which the remaining binding at 0.3 µM on PRKCH (setting [2]) stood at 90%; on EPHA4 (setting [2]) it was 82%; on EGFR(L858R) (setting [2]), 5.6%; at CDKL3 (setting [2]), 98%; at PIK3CA(Q546K) (setting [2]) it was 62%; on DDR2 (setting [2]) it was 80%. Also, the remaining binding at 0.3 µM was found to be 91% on MEK1 (setting [2]), 94% on AURKA (setting [2]) and 81% at PHKG2 (setting [2]).

As for `CC#CC(=O)N1CC[C@@H](n2c(=O)n(-c3ccc(Oc4ccccc4)cc3)c3c(N)ncnc32)C1` [Tirabrutinib], the remaining binding at 0.3 µM on PRKCH (setting [3]) was 91%; at EPHA4 (setting [3]) it was 94%; at EGFR(L858R) (setting [3]) it was 97%; at PIK3CA(Q546K) (setting [3]), 78%; at DDR2 (setting [3]), 88%; on ROS1 (setting [3]), 94%. The remaining binding at 0.3 µM at PAK6 (setting [3]) came to 98%; at PHKG2 (setting [3]), 93%.

As to `C=CC(=O)N1CCC([C@@H]2CCNc3c(C(N)=O)c(-c4ccc(Oc5ccccc5)cc4)nn32)CC1` [Zanubrutinib], the remaining binding at 0.3 µM at PRKCH (setting [4]) is 97%; on CDKL3 (setting [4]) it was 92%; on PIK3CA(Q546K) (setting [4]), 100%; on MEK1 (setting [4]), 4.1%; at ROS1 (setting [4]), 100%; on AURKA (setting [4]) it was 92%. In addition, the remaining binding at 0.3 µM at PAK6 (setting [4]) came to 91%; on PHKG2 (setting [4]), 92%.
